Key:
Erysiphe graminis = assay: fungicidal activity against foliar fungal diseases of plants, Erysiphe graminis (barley); format: in vivo; details: 100 ppm foliar spray plus root drench ca. 40 ppm a.i./dry soil, inoculated 24 hours before treatment
Venturia inaequalis = assay: fungicidal activity against foliar fungal diseases of plants, Venturia inaequalis (apple); format: in vivo; details: 100 ppm foliar spray plus root drench ca. 40 ppm a.i./dry soil, 1-2 days before inoculation
Pyricularia oryzae = format: in vivo; details: 100 ppm foliar spray plus root drench ca. 40 ppm a.i./dry soil, 1-2 days before inoculation
Cercospora arachidicola = assay: fungicidal activity against foliar fungal diseases of plants, Cercospora arachidicola (peanut); format: in vivo; details: 100 ppm foliar spray plus root drench ca. 40 ppm a.i./dry soil, 1-2 days before inoculation
Plasmorpara viticola = assay: fungicidal activity against foliar fungal diseases of plants, Plasmorpara viticola (vine); format: in vivo; details: 100 ppm foliar spray plus root drench ca. 40 ppm a.i./dry soil, 1-2 days before inoculation
Puccinia recondita = assay: fungicidal activity against foliar fungal diseases of plants, Puccinia recondita (wheat); format: in vivo; details: 100 ppm foliar spray plus root drench ca. 40 ppm a.i./dry soil, 1-2 days before inoculation
Rice = assay: plant growth regulating, whole plant screen, rice; format: in vivo, Rice (Ishikari); details: rice (RC); 4000 ppm (4 kg/ha); after 2-6 weeks
Method: (§1) This Example illustrates the plant growth regulating properties of compounds 1 and 2 when tested on a whole plant screen against various species of plant. The plant species are identified in Table IV with the leaf stage at which they were sprayed.
(§2) A formulation of each chemical was applied at 4000 ppm (4 kg/ha in a 1000 l/ha field volume) using a tracksprayer and a SS8004E (Teejet) nozzle.
(§3) After spraying, the plants were grown in a glasshouse with 25° C. day/22° C. night temperatures. Supplementary lighting was supplied when necessary to provide an average photoperiod of 16 hours (14 hours minimum).
(§4) After 2-6 weeks in the glasshouse, depending on species and time of year, the plants were visually assessed for morphological characteristics against a control plant sprayed with a blank formulation.

Apple = assay: plant growth regulating, whole plant screen, apple; format: in vivo, Apple (Red Delicious); details: apple (AP); 4000 ppm (4 kg/ha); after 2-6 weeks
Method: as §1, §2, §3, §4

[1] = tested on: Tetranychus urticae (spider mites - adults); assay: insecticidal properties, contact test, Tetranychus urticae adults (TUa); format: in vivo; details: 500 ppm, French bean leaf, 3 days
Source text: (§5) "SYNPERONIC" is a Registered Trade Mark.

[2] = tested on: Tetranychus urticae (spider mites - ova); assay: insecticidal properties, contact test, Tetranychus urticae ova (TUe); format: in vivo; details: 500 ppm, French bean leaf, 6 days
Source text: as §5

Myzus persicae (aphids) = assay: insecticidal properties, contact test, Myzus persicae (MP); format: in vivo; details: 500 ppm, Chinese Cabbage leaf, 3 days
Source text: as §5

[3] = tested on: Nilaparvata lugens (brown plant hopper - nymphs); assay: insecticidal properties, contact test, Nilaparvata lugens nymphs (NL); format: in vivo; details: 500 ppm, rice plant, 3 days
Source text: as §5

[4] = tested on: Musca domestica (houseflies - adults); assay: insecticidal properties, contact test, Musca domestica adults (MDa); format: in vivo; details: 500 ppm, cotton wool/sugar, 1 day
Source text: as §5

[5] = tested on: Musca domestica (houseflies - adults); assay: knockdown properties against Musca domestica (MDk); format: in vivo; details: 2000 ppm sprayed directly; inverted cup; knockdown at 15 minutes, mortality at 48 hours; 2 days
Method: A sample of compound 1 was diluted with 2 mls acetone and made up of a 2000 ppm solution with 0.1% aqueous synperonic solution. The solution (1 ml) was then sprayed directly onto twenty mixed sex houseflies held in a drinking cup. Immediately after spraying the cups were inverted and left to dry. An assessment of knockdown was made when the cups were righted 15 minutes later. The flies were then provided with a 10% sucrose solution on a cotton wool pad, and held for 48 hours in a holding room conditioned at 25° C. and 65% relative humidity before a mortality assessment was made.

[6] = tested on: Heliothis virescens (tobacco budworm - larvae); assay: insecticidal properties, residual test, Heliothis virescens larvae (HV); format: in vivo; details: 500 ppm, cotton leaf, 3 days
Source text: as §5

[7] = tested on: Diabrotica balteata (rootworm larvae); assay: insecticidal properties, residual test, Diabrotica balteata (DB); format: in vivo; details: 500 ppm, filter paper/maize seed, 3 days
Source text: as §5

[8] = tested on: Meloidogyne incognita (tomato root knot eelworm - larvae); assay: nematode test, residual, Meloidogyne incognita larvae (MI); format: in vivo; details: 250 ppm, semi in-vitro, 7 days
Source text: as §5
MI Meloidogyne incognita

[9] = tested on: Blattella germanica (cockroach nymphs); assay: insecticidal properties, residual test, Blattella germanica nymphs (BG); format: in vivo; details: 500 ppm, plastic pot, 3 days
Source text: as §5

[10] = tested on: Chilo partellus (maize and sorghum stem borers - larvae); assay: insecticidal properties, residual test, Chilo partellus larvae (CPA); details: 500 ppm, oilseed rape, 3 days
Method: The activity of the compound was determined using insect, mite and nematode pests. The compound was used in the form of a liquid preparation containing 500 parts per million (ppm) by weight of the compound except for the test on Meloidogyne incognita when a liquid preparation of 250 ppm by weight was used. The preparation was made by dissolving the compound in acetone and diluting the solution with water containing 0.1% by weight of a wetting agent sold under the trade name "SYNPERONIC" NX until the liquid preparation contained the required concentration of the product.
The test procedure adopted with regard to each pest was basically the same and comprised supporting a number of the pests on a medium which was usually a host plant or a foodstuff on which the pests feed, and treating either or both the pests and the medium with the preparation. The mortality of the pests was then assessed at periods usually varying from one to seven days after the treatment.
The results of the tests are given in Table VII as a grading of mortality designated as 9, 5 or 0 wherein 9 indicates 80-100% mortality, 5 indicates 50-79% mortality and 0 indicates less than 50% mortality.

Phytophthora infestans = format: in vivo; details: 100 ppm foliar spray plus root drench ca. 40 ppm a.i./dry soil, 1-2 days before inoculation
Tomato = assay: plant growth regulating, whole plant screen, tomato; format: in vivo, Tomato (Ailsa Craig); details: tomato (TO); 4000 ppm (4 kg/ha); after 2-6 weeks
Method: as §1, §2, §3, §4

Maize = assay: plant growth regulating, whole plant screen, maize; format: in vivo, Maize (Earliking); details: maize (MZ); 4000 ppm (4 kg/ha); after 2-6 weeks
Method: as §1, §2, §3, §4

SMILES	disease control, ERYSIPHE GRAMINIS (BARLEY) (Erysiphe graminis)	disease control, VENTURIA INAEQUALIS (APPLE) (Venturia inaequalis)	disease control, P[…] (RICE) (Pyricularia oryzae)	disease control, CERCOSPORA ARACHIDICOLA (PEANUT) (Cercospora arachidicola)	disease control, PLASMORPARA VITICOLA (VINE) (Plasmorpara viticola)	disease control, PUCCINIA RECONDITA (WHEAT) (Puccinia recondita)	disease control, PH[…] (TOMATO) (Phytophthora infestans)	also measured
CO/C=C(/C(=O)OC)n1ccc2ccccc21 [Compound 1]	1 (26-59% of disease on untreated plants)	3 (trace--5% of disease on untreated plants)	3 (trace--5% of disease on untreated plants)	3 (trace--5% of disease on untreated plants)	4	0 (60-100% of disease on untreated plants)	–	I = Interligular or internodal length reduction (Rice): 1 (10-30%); R = Retardation (Rice): 1 (10-30%); I = Interligular or internodal length reduction (Apple): 1 (10-30%); R = Retardation (Apple): 1 (10-30%); grading of mortality, TUa [1]: 9 (80-100% mortality); grading of mortality, TUe [2]: 0 (less than 50% mortality); grading of mortality, MP (Myzus persicae (aphids)): 0 (less than 50% mortality); grading of mortality, NL [3]: 0 (less than 50% mortality); grading of mortality, MDa [4]: 0 (less than 50% mortality); grading of mortality, MDk (knockdown) [5]: 0 (less than 50% mortality); grading of mortality, HV [6]: 0 (less than 50% mortality); grading of mortality, DB [7]: 0 (less than 50% mortality); grading of mortality, MI [8]: 0 (less than 50% mortality); grading of mortality, BG [9]: 0 (less than 50% mortality); grading of mortality, CPA [10]: 9 (80-100% mortality)
CCOc1ccc2ccn(/C(=C\OC)C(=O)OC)c2c1 [Compound 2, (Z)-methyl 3-methoxy-2-[6-ethoxyindol-1-yl]acrylate]	4	4	4	4	4	4	4	A = Apical damage (Tomato): 3 (61-100%); I = Interligular or internodal length reduction (Tomato): 3 (61-100%); P = Phytotoxicity (Tomato): 2 (11-30%); R = Retardation (Tomato): 3 (61-100%); T = Tillering or side shooting (Tomato): 1 (10-30%); A = Apical damage (Maize): 2 (31-60%); G = Greening effect (Maize): 1 (10-30%)
CO/C=C(/C(=O)OC)n1ccc2ccc(-c3ccccc3)cc21 [Compound 3, (Z)-methyl 3-methoxy-2-[6-phenylindol-1-yl]acrylate]	2 (6-25% of disease on untreated plants)	4	4	–	4	4	4	–
CO/C=C(/C(=O)OC)n1ccc2ccc(OC)cc21 [Compound 4]	2 (6-25% of disease on untreated plants)	4	4	3 (trace--5% of disease on untreated plants)	4	1 (26-59% of disease on untreated plants)	0 (60-100% of disease on untreated plants)	–
CO/C=C(/C(=O)OC)n1ccc2ccc(Br)cc21 [Compound 7]	4	4	–	4	4	4	4	–
CO/C=C(/C(=O)OC)n1ccc2ccc(I)cc21 [Compound 8]	4	4	–	4	4	4	4	–
